Experimental data as given in ChEMBL document CHEMBL3714725, “Diaminopyrimidines as P2X3 and P2X2/3 modulators” (2010).
The source made the active and inactive calls. The rule behind the calls is not given here.

system: Rattus norvegicus; test: AUC in Crl:WI(GLx/BRL/Han)IGS BR(Hanover-Wistar) rat assessed as (5-(5-Iodo-2-isopropyl-4-methoxy-phenoxy)-pyrimidine-2,4-diamine) level at 0.127 mmol, po after 0.5 to 24 hrs by HPLC method; format: ADME, organism-based; design: time upper 24 hr, time lower 0.5 hr, dose 0.127 mmol, route oral; details: in vivo

Structure (SMILES) | AUC
COc1cc(C(C)C)c(Oc2cnc(NC(=O)C(C)C)nc2N)cc1I | 200 ng·h/mL

system: Rattus norvegicus; test: Cmax in Crl:WI(GLx/BRL/Han)IGS BR(Hanover-Wistar) rat assessed as (5-(5-Iodo-2-isopropyl-4-methoxy-phenoxy)-pyrimidine-2,4-diamine) level at 0.127 mmol, po after 0.5 to 24 hrs by HPLC method; format: ADME, organism-based; design: dose 0.127 mmol, route oral; details: in vivo

Structure (SMILES) | Cmax
COc1cc(C(C)C)c(Oc2cnc(NC(=O)C(C)C)nc2N)cc1I | 61.9 ng/mL

biological target: T1, P2X purinoceptor 3 (Rattus norvegicus) (UniProt P49654); test: Antagonist activity against rat P2X3 receptor expressed in CHOK1 cells assessed as inhibition of alpha,beta-meATP-induced calcium response incubated for 20 mins by Fluo-3AM dye based FLIPR assay; format: functional, cell-based; details: CHO-K1
T1 sequence (whole entry): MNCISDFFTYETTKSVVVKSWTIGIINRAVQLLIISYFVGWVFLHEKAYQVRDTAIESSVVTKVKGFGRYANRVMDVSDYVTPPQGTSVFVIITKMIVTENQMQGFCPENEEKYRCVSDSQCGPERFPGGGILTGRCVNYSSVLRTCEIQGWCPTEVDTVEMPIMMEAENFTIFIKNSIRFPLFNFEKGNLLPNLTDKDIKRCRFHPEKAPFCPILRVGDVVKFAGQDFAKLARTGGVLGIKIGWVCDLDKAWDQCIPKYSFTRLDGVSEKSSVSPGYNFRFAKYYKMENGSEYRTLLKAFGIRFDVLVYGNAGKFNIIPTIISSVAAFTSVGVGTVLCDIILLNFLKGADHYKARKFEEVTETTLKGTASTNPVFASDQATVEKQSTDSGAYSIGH

Structure (SMILES) | inhibition
COc1cc(C(C)C)c(Oc2cnc(NC(=O)COC(C)=O)nc2NC(=O)COC(C)=O)cc1I | Active
COc1cc(C(C)C)c(Oc2cnc(N)nc2NC(=O)c2cccn2C)cc1I | Active
COc1cc(C(C)C)c(Oc2cnc(NC(=O)CCC(=O)O)nc2N)cc1I | Active
C#Cc1cc(Oc2cnc(NC(=O)CC(C)(C)C)nc2N)c(C(C)C)cc1OC | Active
COc1cc(C(C)C)c(Oc2cnc(N)nc2NC(=O)c2ccccc2)cc1I | Active
COc1cc(C(C)C)c(Oc2cnc(NC(=O)C(C)(C)C)nc2N)cc1I | Active
COc1cc(C(C)C)c(Oc2cnc(N)nc2NC(=O)c2cnc[nH]2)cc1I | Active
COc1cc(C(C)C)c(Oc2cnc(N)nc2NC(=O)C2CCOCC2)cc1I | Active
COc1cc(C(C)C)c(Oc2cnc(NC(=O)C(N)C(C)C)nc2N)cc1I (centres undefined) | Active
COc1cc(C(C)C)c(Oc2cnc(NC(=O)C(C)C)nc2NC(=O)C(C)C)cc1I | Active
COc1cc(C(C)C)c(Oc2cnc(NC(=O)C(C)(C)OC(C)=O)nc2N)cc1I | Active
COc1cc(C(C)C)c(Oc2cnc(N)nc2NC(=O)c2ccccn2)cc1I | Active
COc1cc(C(C)C)c(Oc2cnc(NC(=O)[C@@H]3CCCO3)nc2N)cc1I | Active
COc1cc(C(C)C)c(Oc2cnc(NC(C)=O)nc2NC(C)=O)cc1I | Active
COc1cc(C(C)C)c(Oc2cnc(NC(=O)OCC(C)C)nc2N)cc1I | Active
CCOC(=O)Nc1ncc(Oc2cc(I)c(OC)cc2C(C)C)c(N)n1 | Active
COc1cc(C(C)C)c(Oc2cnc(N)nc2NC(=O)c2cnccn2)cc1I | Active
C#Cc1cc(Oc2cnc(N)nc2NC(=O)c2ccccc2)c(C(C)C)cc1OC | Active
COc1cc(C(C)C)c(Oc2cnc(NC(=O)c3ccccc3)nc2N)cc1I | Active
COc1cc(C(C)C)c(Oc2cnc(NC(=O)c3cnccn3)nc2N)cc1I | Active
COc1cc(C(C)C)c(Oc2cnc(NC(=O)c3ccncc3)nc2N)cc1I | Active
C#Cc1cc(Oc2cnc(N)nc2NC(=O)c2cccn2C)c(C(C)C)cc1OC | Active
COc1cc(C(C)C)c(Oc2cnc(NC(=O)c3ccccn3)nc2N)cc1I | Active
CCCC(=O)Nc1ncc(Oc2cc(I)c(OC)cc2C(C)C)c(N)n1 | Active

Structure (SMILES) | inhibition
C#Cc1cc(Oc2cnc(N)nc2NC(=O)CC(C)(C)C)c(C(C)C)cc1OC | Active
COc1cc(C(C)C)c(Oc2cnc(NC(=O)c3ccco3)nc2N)cc1I | Active
COc1cc(C(C)C)c(Oc2cnc(NC(=O)c3cnc(C)cn3)nc2N)cc1I | Active
COc1cc(C(C)C)c(Oc2cnc(N)nc2NC(=O)C2CCN(C(C)=O)CC2)cc1I | Active
COc1cc(C(C)C)c(Oc2cnc(N)nc2NC(=O)C2CCN(C)CC2)cc1I | Active
COc1cc(C(C)C)c(Oc2cnc(NC(=O)N3CCC(O)CC3)nc2N)cc1I | Active
COc1cc(C(C)C)c(Oc2cnc(NC(=O)C(C)(C)O)nc2N)cc1I | Active
CCC(C)C(=O)Nc1ncc(Oc2cc(I)c(OC)cc2C(C)C)c(N)n1 (centres undefined) | Active
CCCCC(=O)Nc1ncc(Oc2cc(I)c(OC)cc2C(C)C)c(N)n1 | Active
COc1cc(C(C)C)c(Oc2cnc(NC(=O)C3CCN(C)CC3)nc2N)cc1I | Active
C#Cc1cc(Oc2cnc(NC(C)=O)nc2N)c(C(C)C)cc1OC | Active
CC[C@@H](C)[C@@H](N)C(=O)Nc1nc(N)ncc1Oc1cc(I)c(OC)cc1C(C)C | Active
COc1cc(C(C)C)c(Oc2cnc(NC(=O)Cc3cccnc3)nc2N)cc1I | Active
COc1cc(C(C)C)c(Oc2cnc(NC(=O)COC(C)=O)nc2N)cc1I | Active
COc1cc(C(C)C)c(Oc2cnc(NC(=O)[C@@H]3CCCN3)nc2N)cc1I | Active
C#Cc1cc(Oc2cnc(NC(=O)c3ccccc3)nc2N)c(C(C)C)cc1OC | Active
COCCOCC(=O)Nc1ncc(Oc2cc(I)c(OC)cc2C(C)C)c(N)n1 | Active
COc1cc(C(C)C)c(Oc2cnc(N)nc2NC(=O)c2cnc(C)cn2)cc1I | Active
COCC(=O)Nc1ncc(Oc2cc(I)c(OC)cc2C(C)C)c(N)n1 | Active
COc1cc(C(C)C)c(Oc2cnc(NC(C)=O)nc2N)cc1I | Active
COc1cc(C(C)C)c(Oc2cnc(NC(=O)[C@H](N)[C@H](C)C(C)C)nc2N)cc1I | Active
COc1cc(C(C)C)c(Oc2cnc(NC(=O)C3CCN(C(C)=O)CC3)nc2NC(=O)C2CCN(C(C)=O)CC2)cc1I | Active
CC[C@@H](C)[C@@H](N)C(=O)Nc1ncc(Oc2cc(I)c(OC)cc2C(C)C)c(N)n1 | Active
CCC(C)(C)C(=O)Nc1ncc(Oc2cc(I)c(OC)cc2C(C)C)c(N)n1 | Active

Structure (SMILES) | inhibition
CCOC(=O)Nc1ncc(Oc2cc(I)c(OC)cc2C(C)C)c(NC(=O)OCC)n1 | Active
COc1cc(C(C)C)c(Oc2cnc(NC(=O)CC(C)C)nc2N)cc1I | Active
COc1cc(C(C)C)c(Oc2cnc(NC(=O)N3CCOCC3)nc2NC(=O)N2CCOCC2)cc1I | Active
COc1cc(C(C)C)c(Oc2cnc(NC(=O)N3CCC(C)CC3)nc2N)cc1I | Active
COc1cc(C(C)C)c(Oc2cnc(NC(=O)CO)nc2N)cc1I | Active
COc1cc(C(C)C)c(Oc2cnc(NC(=O)c3cnc[nH]3)nc2N)cc1I | Active
C#Cc1cc(Oc2cnc(NC(=O)C(C)(C)C)nc2NC(=O)C(C)(C)C)c(C(C)C)cc1OC | Active
CCCCC(=O)Nc1ncc(Oc2cc(I)c(OC)cc2C(C)C)c(NC(=O)CCCC)n1 | Active
COCCOCC(=O)Nc1nc(N)ncc1Oc1cc(I)c(OC)cc1C(C)C | Active
COc1cc(C(C)C)c(Oc2cnc(N)nc2NC(=O)[C@@H]2CCCO2)cc1I | Active
C#Cc1cc(Oc2cnc(NC(=O)CCC)nc2N)c(C(C)C)cc1OC | Active
CCCC(=O)Nc1ncc(Oc2cc(I)c(OC)cc2C(C)C)c(NC(=O)CCC)n1 | Active
COc1cc(C(C)C)c(Oc2cnc(NC(=O)N3CCN(C)CC3)nc2N)cc1I | Active
C#Cc1cc(Oc2cnc(N)nc2NC(=O)CCC)c(C(C)C)cc1OC | Active
CCC(C)(C)C(=O)Nc1nc(N)ncc1Oc1cc(I)c(OC)cc1C(C)C | Active
COc1cc(C(C)C)c(Oc2cnc(NC(=O)C3CCCN3C(C)=O)nc2N)cc1I (centres undefined) | Active
COc1cc(C(C)C)c(Oc2cnc(NC(=O)c3ccnnc3)nc2N)cc1I | Active
COc1cc(C(C)C)c(Oc2cnc(NC(=O)N3CCCCC3)nc2N)cc1I | Active
COc1cc(C(C)C)c(Oc2cnc(NC(=O)CC(C)C)nc2NC(=O)CC(C)C)cc1I | Active
COc1cc(C(C)C)c(Oc2cnc(N)nc2NC(=O)C(C)(C)C)cc1I | Active
COc1cc(C(C)C)c(Oc2cnc(N)nc2NC(=O)c2ccco2)cc1I | Active
COc1cc(C(C)C)c(Oc2cnc(NC(=O)N3CCOCC3)nc2N)cc1I | Active
COc1cc(C(C)C)c(Oc2cnc(NC(=O)N3CCC(N(C)C)CC3)nc2N)cc1I | Active
COc1cc(C(C)C)c(Oc2cnc(NC(=O)c3cccnc3)nc2N)cc1I | Active
